Source: US11439707B2, “Hypocrellin derivative substituted both in a peri-position and in 2-position by amino, preparation method, and application thereof” (priority 2017, dated 2022)

Tests used:
[1] = singlet oxygen efficiency test, reference rose bengal; type: physicochemical
[2] = absorption spectrum (maximum absorption wavelength, molar extinction coefficient); type: physicochemical

COCCOCCOCCOCCOCCOCCOCCOCCOCCNC(=O)C1CCC(CNc2c3c4c5c(c(OC)c(=O)c6c(NCC7CCC(C(=O)NCCOCCOCCOCCOCCOCCOCCOCCOCCOC)CC7)cc(OC)c(c7c(OC)cc(O)c(c2=O)c74)c65)C(C(C)=O)C(C)=C3)CC1 (stereo not drawn) [HB-13d-NH-PEG8]
singlet oxygen yield [1]: 32% | maximum absorption wavelength [2]: 628 nm | molar extinction coefficient [2]: 31,500 M^−1cm^−1

COc1c2c3c4c(c(NC5CCC(O)CC5)c(=O)c5c(NC6CCC(O)CC6)cc(OC)c(c6c(OC)cc(O)c(c1=O)c63)c54)C=C(C)C2C(C)=O (stereo not drawn) [HB-17c]
singlet oxygen yield [1]: 23% | maximum absorption wavelength [2]: 622 nm | molar extinction coefficient [2]: 26,000 M^−1cm^−1

COc1c(O)c2c(=O)cc(OC)c3c4c(OC)cc(=O)c5c(NCCC6CCC(O)CC6)c(NCCC6CCC(O)CC6)c6c(c(c1C(C(C)=O)C(C)=C6)c23)c54 (stereo not drawn) [HB-18a]
singlet oxygen yield [1]: 20% | maximum absorption wavelength [2]: 614 nm | molar extinction coefficient [2]: 24,000 M^−1cm^−1

COc1c2c3c4c(c(NC(CC(=O)O)C(=O)O)c(=O)c5c(O)cc(OC)c(c6c(OC)cc(NC(CC(=O)O)C(=O)O)c(c1=O)c63)c54)C=C(C)C2C(C)=O (stereo not drawn) [HB-27d]
singlet oxygen yield [1]: 18% | maximum absorption wavelength [2]: 620 nm | molar extinction coefficient [2]: 21,500 M^−1cm^−1

COCCOC(=O)C1(Nc2c(NC3(C(=O)OCCOC)CC3)c3c(=O)cc(OC)c4c5c(OC)cc(=O)c6c(O)c(OC)c7c(c(c2C=C(C)C7)c34)c65)CC1 [HC-35a-PEG1]
singlet oxygen yield [1]: 32% | maximum absorption wavelength [2]: 622 nm | molar extinction coefficient [2]: 31,000 M^−1cm^−1

COCCOCCOCCOCCOCCOCCOCCC(=O)N1CCC(CNc2c3c4c5c(c(OC)c(=O)c6c(O)cc(OC)c(c7c(OC)c(Br)c(NCC8CCN(C(=O)CCOCCOCCOCCOCCOCCOCCOC)CC8)c(c2=O)c47)c65)C(C(C)=O)C(C)=C3)CC1 (stereo not drawn) [HB-31c-Br-PEG6]
singlet oxygen yield [1]: 38% | maximum absorption wavelength [2]: 631 nm | molar extinction coefficient [2]: 33,000 M^−1cm^−1

COc1c2c3c4c(c(NCCCC(=O)NCCCCS(=O)(=O)O)c(=O)c5c(O)cc(OC)c(c6c(OC)cc(NCCCC(=O)NCCCCS(=O)(=O)O)c(c1=O)c63)c54)C=C(C)C2 [HC-8d-NH—C4-SO3H]
singlet oxygen yield [1]: 32% | maximum absorption wavelength [2]: 626 nm | molar extinction coefficient [2]: 30,500 M^−1cm^−1

COCCOCCC(=O)OCCOCCNc1c(NCCCC(=O)O)c2c(=O)cc(OC)c3c4c(OC)cc(=O)c5c(O)c(OC)c6c(c(c1C=C(C)C6C(C)=O)c23)c54 (stereo not drawn) [HB-48a-PEG1]
singlet oxygen yield [1]: 32% | maximum absorption wavelength [2]: 628 nm | molar extinction coefficient [2]: 31,500 M^−1cm^−1

COc1c2c3c4c(c(NCCCC(=O)O)c(=O)c5c(O)cc(OC)c(c6c(OC)cc(NCCCC(=O)O)c(c1=O)c63)c54)C=C(C)C2C(C)=O (stereo not drawn) [HB-8d]
singlet oxygen yield [1]: 26% | maximum absorption wavelength [2]: 624 nm | molar extinction coefficient [2]: 29,000 M^−1cm^−1

COc1c2c3c4c(c(NC(CS)C(=O)O)c(=O)c5c(NC(CS)C(=O)O)cc(OC)c(c6c(OC)cc(O)c(c1=O)c63)c54)C=C(C)C2C(C)=O (stereo not drawn) [HB-25c]
singlet oxygen yield [1]: 20% | maximum absorption wavelength [2]: 632 nm | molar extinction coefficient [2]: 21,500 M^−1cm^−1

COCCOCCC(=O)OCCOCCNc1c2c3c4c(c(OC)c(=O)c5c(O)cc(OC)c(c6c(OC)cc(NCCOCCOC(=O)CCOCCOC)c(c1=O)c63)c54)C(C(C)=O)C(C)=C2 (stereo not drawn) [HB-1c-PEG1]
singlet oxygen yield [1]: 38% | maximum absorption wavelength [2]: 626 nm | molar extinction coefficient [2]: 33,000 M^−1cm^−1

COc1c(NO)c2c(=O)cc(OC)c3c4c(OC)cc(=O)c5c(O)c(NO)c6c(c(c1CC(C)=C6)c23)c54 [HC-37b]
singlet oxygen yield [1]: 31% | maximum absorption wavelength [2]: 622 nm | molar extinction coefficient [2]: 31,500 M^−1cm^−1

COc1c(O)c2c(=O)cc(OC)c3c4c(OC)cc(=O)c5c(NCCS(=O)(=O)OC)c(NCCS(=O)(=O)OC)c6c(c(c1C(C(C)=O)C(C)=C6)c23)c54 (stereo not drawn) [HB-12a]
singlet oxygen yield [1]: 20% | maximum absorption wavelength [2]: 621 nm | molar extinction coefficient [2]: 23,500 M^−1cm^−1

COc1c(NC2(CO)CC2)c2c(=O)cc(OC)c3c4c(OC)cc(=O)c5c(O)c(NC6(CO)CC6)c6c(c(c1C(C(C)=O)C(C)=C6)c23)c54 (stereo not drawn) [HB-35b]
singlet oxygen yield [1]: 30% | maximum absorption wavelength [2]: 620 nm | molar extinction coefficient [2]: 31,500 M^−1cm^−1

COc1c(O)c2c(=O)cc(OC)c3c4c(OC)cc(=O)c5c(NC(CS)C(=O)O)c(NC(CS)C(=O)O)c6c(c(c1C(C(C)=O)C(C)=C6)c23)c54 (stereo not drawn) [HB-25a]
singlet oxygen yield [1]: 18% | maximum absorption wavelength [2]: 625 nm | molar extinction coefficient [2]: 21,500 M^−1cm^−1

COc1c2c3c4c(c(NCC[N+]56CC[N+](C)(CC5)CC6)c(=O)c5c(O)cc(OC)c(c6c(OC)cc(NCC[N+]78CC[N+](C)(CC7)CC8)c(c1=O)c63)c54)C=C(C)C2C(C)=O (stereo not drawn) [HB-41d]
singlet oxygen yield [1]: 28% | maximum absorption wavelength [2]: 625 nm | molar extinction coefficient [2]: 30,500 M^−1cm^−1

COc1c(O)c2c(=O)cc(OC)c3c4c(OC)cc(=O)c5c(NCCCC(=O)O)c(NCCCC(=O)O)c6c(c(c1CC(C)=C6)c23)c54 [HC-8a]
singlet oxygen yield [1]: 26% | maximum absorption wavelength [2]: 620 nm | molar extinction coefficient [2]: 28,500 M^−1cm^−1

COCCOCCNC(=O)C1CCC(CNc2c(NCC3CCC(C(=O)NCCOCCOC)CC3)c3c(=O)cc(OC)c4c5c(OC)cc(=O)c6c(O)c(OC)c7c(c(c2C=C(C)C7C(C)=O)c34)c65)CC1 (stereo not drawn) [HB-13a-NH-PEG1]
singlet oxygen yield [1]: 32% | maximum absorption wavelength [2]: 624 nm | molar extinction coefficient [2]: 31,000 M^−1cm^−1

COCCOCCOCCOCCOCCOCCOCCC(=O)N1CCC(CNc2c3c4c5c(c(OC)c(=O)c6c(O)cc(OC)c(c7c(OC)cc(NCC8CCN(C(=O)CCOCCOCCOCCOCCOCCOCCOC)CC8)c(c2=O)c74)c65)C(C(C)=O)C(C)=C3)CC1 (stereo not drawn) [HB-31c-PEG6]
singlet oxygen yield [1]: 40% | maximum absorption wavelength [2]: 632 nm | molar extinction coefficient [2]: 33,500 M^−1cm^−1

COc1c2c3c4c(c(NCc5ccccn5)c(=O)c5c(O)cc(OC)c(c6c(OC)cc(NCc7ccccn7)c(c1=O)c63)c54)C=C(C)C2C(C)=O (stereo not drawn) [HB-38d]
singlet oxygen yield [1]: 17% | maximum absorption wavelength [2]: 624 nm | molar extinction coefficient [2]: 18,500 M^−1cm^−1

COc1c2c3c4c(c(NCCCC(=O)NCCCC[N+](C)(C)C)c(=O)c5c(O)cc(OC)c(c6c(OC)cc(NCCCC(=O)NCCCC[N+](C)(C)C)c(c1=O)c63)c54)C=C(C)C2 [HC-8d-NH—C4-N^+]
singlet oxygen yield [1]: 33% | maximum absorption wavelength [2]: 624 nm | molar extinction coefficient [2]: 30,500 M^−1cm^−1

COCCOCCC(=O)OCCOCCNc1c2c3c4c(c(OC)c(=O)c5c(O)cc(OC)c(c6c(OC)cc(NCCOCCOC(=O)CCOCCOC)c(c1=O)c63)c54)CC(C)=C2 [HC-1c-PEG1]
singlet oxygen yield [1]: 34% | maximum absorption wavelength [2]: 625 nm | molar extinction coefficient [2]: 32,500 M^−1cm^−1

COc1c(NC2CCC(C(=O)O)C2)c2c(=O)cc(OC)c3c4c(OC)cc(=O)c5c(O)c(NC6CCC(C(=O)O)C6)c6c(c(c1C(C(C)=O)C(C)=C6)c23)c54 (stereo not drawn) [HB-19b]
singlet oxygen yield [1]: 22% | maximum absorption wavelength [2]: 620 nm | molar extinction coefficient [2]: 25,000 M^−1cm^−1

COCCOCCOCCOCCOC(=O)C1CCC(CNc2c3c4c5c(c(OC)c(=O)c6c(O)cc(OC)c(c7c(OC)cc(NCC8CCC(C(=O)OCCOCCOCCOCCOC)CC8)c(c2=O)c74)c65)C(C(C)=O)C(C)=C3)CC1 (stereo not drawn) [HB-13c-PEG4]
singlet oxygen yield [1]: 38% | maximum absorption wavelength [2]: 630 nm | molar extinction coefficient [2]: 32,500 M^−1cm^−1

COc1c(NCCCCS(=O)(=O)O)c2c(=O)cc(OC)c3c4c(OC)cc(=O)c5c(O)c(NCCCCS(=O)(=O)O)c6c(c(c1C(C(C)=O)C(C)=C6)c23)c54 (stereo not drawn) [HB-11b-C4-SO3H]
singlet oxygen yield [1]: 34% | maximum absorption wavelength [2]: 620 nm | molar extinction coefficient [2]: 30,500 M^−1cm^−1

COc1c2c3c4c(c(NCCCC(=O)NCCCCCC[N+](C)(C)C)c(=O)c5c(NCCCC(=O)NCCCCCC[N+](C)(C)C)cc(OC)c(c6c(OC)cc(O)c(c1=O)c63)c54)C=C(C)C2 [HC-8c-NH—C6-N^+]
singlet oxygen yield [1]: 36% | maximum absorption wavelength [2]: 634 nm | molar extinction coefficient [2]: 32,000 M^−1cm^−1

COCCOCCOC(=O)C1CCCC1Nc1c(NC2CCCC2C(=O)OCCOCCOC)c2c(=O)cc(OC)c3c4c(OC)cc(=O)c5c(O)c(OC)c6c(c(c1C=C(C)C6C(C)=O)c23)c54 (stereo not drawn) [HB-21a-PEG1]
singlet oxygen yield [1]: 30% | maximum absorption wavelength [2]: 624 nm | molar extinction coefficient [2]: 31,500 M^−1cm^−1

COCCOCCOCCOCCOCCOCCOCCOCCOCCOCCOCCOCCOCCN1C(=O)CN(C(=O)OCCNc2c3c4c5c(c(OC)c(=O)c6c(NCCOC(=O)N7CC(=O)N(CCOCCOCCOCCOCCOCCOCCOCCOCCOCCOCCOCCOCCOC)C(=O)C7)cc(OC)c(c7c(OC)cc(O)c(c2=O)c74)c65)C(C(C)=O)C(C)=C3)CC1=O (stereo not drawn) [HB-40d-PEG12]
singlet oxygen yield [1]: 30% | maximum absorption wavelength [2]: 628 nm | molar extinction coefficient [2]: 30,500 M^−1cm^−1

COc1c(NCC2CCC(C(=O)NCCCC[P+](c3ccccc3)(c3ccccc3)c3ccccc3)CC2)c2c(=O)cc(OC)c3c4c(OC)cc(=O)c5c(O)c(NCC6CCC(C(=O)NCCCC[P+](c7ccccc7)(c7ccccc7)c7ccccc7)CC6)c6c(c(c1CC(C)=C6)c23)c54 (stereo not drawn) [HC-13b-NH—C4-PPh3+]
singlet oxygen yield [1]: 34% | maximum absorption wavelength [2]: 626 nm | molar extinction coefficient [2]: 30,500 M^−1cm^−1

COc1c2c3c4c(c(NCCNCCOCCOCCOCCOCCO)c(=O)c5c(NCCNCCOCCOCCOCCOCCO)c(Br)c(OC)c(c6c(OC)cc(O)c(c1=O)c63)c54)C=C(C)C2C(C)=O (stereo not drawn) [HB-5c-Br-PEG4]
singlet oxygen yield [1]: 36% | maximum absorption wavelength [2]: 630 nm | molar extinction coefficient [2]: 31,500 M^−1cm^−1

COc1c(O)c2c(=O)cc(OC)c3c4c(OC)cc(=O)c5c(NCC(=O)O)c(NCC(=O)O)c6c(c(c1C(C(C)=O)C(C)=C6)c23)c54 (stereo not drawn) [HB-7a]
singlet oxygen yield [1]: 28% | maximum absorption wavelength [2]: 620 nm | molar extinction coefficient [2]: 26,500 M^−1cm^−1

COCCOCCOCCOCCOCCOCCOCCC(=O)OCCOCCNc1c2c3c4c(c(OC)c(=O)c5c(NCCOCCOC(=O)CCOCCOCCOCCOCCOCCOCCOC)cc(OC)c(c6c(OC)cc(O)c(c1=O)c63)c54)CC(C)=C2 [HC-1d-PEG6]
singlet oxygen yield [1]: 34% | maximum absorption wavelength [2]: 622 nm | molar extinction coefficient [2]: 34,500 M^−1cm^−1
